{"source": "patent EP4060021A1", "about": "“MIMETIC MICROBIOLOGICAL CULTURE MEDIUM AND USES THEREOF” (BIOFILM PHARMA, priority 2021, dated 2022)", "key": {"[1]": {"test_system": "souches de S. aureus issues de prélèvements de plaies du pied infectées chez des patients diabétiques", "experiment": "Antibiotic susceptibility test (MIC, 96-well microplate, OD 600 nm) in wound medium of the invention (MP)", "type": "cell-based", "description": "(§1) • La Figure 1 représente des courbes de croissance de bactéries en fonction du milieu de culture. Sur cette figure, les ordonnées correspondent au logarithme d'unités formant colonie par millilitre de milieu de culture (Log UFC/ml) et les abscisses, au temps en heure (H). La Figure 1A représente les courbes correspondant à la croissance de 2 souches de S. aureus, Newman (gauche) et SAC1 (droite), dans le milieu BHI (courbe avec indicateurs ronds) et un exemple de milieu selon l'invention (MP) (courbe avec indicateurs carrés). La Figure 1B représente les courbes correspondant à la croissance de 2 souches de P. aeruginosa, PAO1 (gauche) et PAC1 (droite), dans le milieu BHI (courbe avec indicateurs ronds) et un exemple de milieu selon l'invention (MP) (courbe avec indicateurs carrés). La Figure 1C représente les courbes correspondant à la croissance de 2 souches cliniques S. aureus SAC1 et P. aeruginosa PAC1, en coculture dans le milieu BHI (P. aeruginosa BHI ou S. aureus BHI) et un exemple de milieu selon l'invention (MP) (P. aeruginosa MP ou S. aureus MP). La mesure de différence significative, réalisée par le test de Student, entre les valeurs d'UFC/mL est exprimée, soit par (***) qui correspond à une p-value <0,001, soit par (**) qui correspond à une p-value <0,01. • La Figure 2 représente les résultats obtenus d'une détermination de l'adhésion et de la formation de biofilm par dénombrement à 24h. Sur cette figure, les ordonnées correspondent au logarithme d'unités formant colonie par millilitre de milieu de culture (Log UFC/ml). La Figure 2A représente un histogramme ou diagramme en bâton du nombre de bactéries dénombrées suite à des cultures séparées de souche S. aureus Newman (Newman), S. aureus SAC1 (SAC 1), P. aeruginosa PAO1 (PAO1) ou P. aeruginosa PAC1 (PAC1), pendant 24H dans un milieu BHI (BHI) (bâtons noirs) ou dans un exemple de milieu selon l'invention (MP) (bâtons gris). La Figure 2B montre sous forme d'histogramme le nombre de bactéries dénombrées suite à des co-cultures des souches de référence S. aureus Newman et P. aeruginosa PAO1 (PAO1/Newman), ainsi que du couple de souches cliniques S. aureus SAC1 et P. aeruginosa PAC1 (PAC 1/SAC1), pendant 24H dans un milieu BHI (BHI) (bâtons noirs) ou dans un exemple de milieu selon l'invention (MP) (bâtons gris). La mesure de différence significative, réalisée par le test de Student, entre les valeurs d'UFC est exprimée, soit par (***) qui correspond à une p-value <0,001, soit par (**) qui correspond à une p-value <0,01. • La Figure 3 représente les résultats obtenus d'une détermination de sensibilité à des antibiotiques de souches cliniques de S. aureus issues d'infections de plaies du pied chez le diabétique. Les données cliniques, anonymisées, nécessaires à l'interprétation des résultats, consistaient en l'antibiothérapie donnée au patient, ainsi que la qualification par les médecins hospitaliers d'un succès ou échec thérapeutique. La définition de succès ou échec thérapeutique est définie comme suit. Le patient commence et suit l'antibiothérapie prescrite et un deuxième prélèvement microbiologique est effectué lors du dernier jour de traitement de la 1ère antibiothérapie (± 2 jours). Ce prélèvement est utilisé pour déterminer la présence/absence du pathogène ciblé par l'antibiothérapie, S. aureus. Si ce prélèvement a montré la persistance d'un S. aureus, l'antibiothérapie est en échec. A l'inverse, en cas d'absence de S. aureus, l'antibiothérapie est associée à un succès thérapeutique. Les antibiogrammes ont été réalisés classiquement sur une durée de 18h ± 2h en accord avec les recommandations de l'EUCAST. Une gamme de l'antibiotique à tester a été réalisée. • La Figure 3A montre sous forme d'histogramme les résultats des CMI déduites d'antibiogrammes sur 11 souches testées en présence d'amoxicilline / clavulanate de potassium (commercialisé par exemple sous le nom d'Augmentin (marque déposée))."}, "souche de S. aureus": {"test_system": "souche de S. aureus", "conditions": "modèle de sepsis, souris infectée par S. aureus, traitées; cited from earlier work"}, "[2]": {"test_system": "souches de S. aureus issues de prélèvements de plaies du pied infectées chez des patients diabétiques", "experiment": "Antibiotic susceptibility test (MIC, 96-well microplate, OD 600 nm) in Mueller-Hinton medium (MH)", "type": "cell-based", "set-up": "key to Classification (S) ou (R) en MH: S (sensible); R (résistante)", "description": "as §1"}, "[3]": {"conditions": "souche associée à un succès thérapeutique"}}}
{"substance": "cotrimoxazole", "values": [{"measurement": "CMI dans un exemple de milieu selon l'invention (MP)", "setting": "[1]; 3 souches associées à un échec thérapeutique", "value": 16, "unit": "mg/L"}, {"measurement": "CMI en milieu plaie MP", "setting": "[1]; souche C01P0 01", "value": 16, "unit": "mg/L"}, {"measurement": "Classification (S) ou (R) en MP", "setting": "[1]; souche C01P0 01", "value": "(R) (valeur de CMI mesurée dans l'exemple de milieu selon l'invention supérieure au seuil et peuvent être classifiées comme résistantes (noté R dans le tableau 5B))"}, {"measurement": "CMI en milieu plaie MP", "setting": "[1]; souche C01P0 11", "value": 8, "unit": "mg/L"}, {"measurement": "Classification (S) ou (R) en MP", "setting": "[1]; souche C01P0 11", "value": "(S) (avantageusement inférieur au seuil et peut être classifiée comme sensible (noté S dans le tableau 5B))"}, {"measurement": "CMI en milieu plaie MP", "setting": "[1]; souche C03P0 02", "value": 16, "unit": "mg/L"}, {"measurement": "Classification (S) ou (R) en MP", "setting": "[1]; souche C03P0 02", "value": "(R) (valeur de CMI mesurée dans l'exemple de milieu selon l'invention supérieure au seuil et peuvent être classifiées comme résistantes (noté R dans le tableau 5B))"}, {"measurement": "CMI en milieu plaie MP", "setting": "[1]; souche C03P0 07", "value": 16, "unit": "mg/L"}, {"measurement": "Classification (S) ou (R) en MP", "setting": "[1]; souche C03P0 07", "value": "(R) (valeur de CMI mesurée dans l'exemple de milieu selon l'invention supérieure au seuil et peuvent être classifiées comme résistantes (noté R dans le tableau 5B))"}, {"measurement": "CMI mesurée dans un exemple de milieu selon l'invention (MP)", "setting": "[1]; [3]", "value": 8, "unit": "mg/L"}, {"measurement": "survie des souris", "setting": "souche de S. aureus", "value": "n'a pas permis la survie des souris"}, {"measurement": "CMI en milieu MH", "setting": "[2]; souche C01P0 01", "value": "0,5 mg/L"}, {"measurement": "Classification (S) ou (R) en MH", "setting": "[2]; souche C01P0 01", "value": "(S)"}, {"measurement": "CMI en milieu MH", "setting": "[2]; souche C01P0 11", "value": 4, "unit": "mg/L"}, {"measurement": "Classification (S) ou (R) en MH", "setting": "[2]; souche C01P0 11", "value": "(S)"}, {"measurement": "CMI en milieu MH", "setting": "[2]; souche C03P0 02", "value": 1, "unit": "mg/L"}, {"measurement": "Classification (S) ou (R) en MH", "setting": "[2]; souche C03P0 02", "value": "(S)"}, {"measurement": "CMI en milieu MH", "setting": "[2]; souche C03P0 07", "value": 1, "unit": "mg/L"}, {"measurement": "Classification (S) ou (R) en MH", "setting": "[2]; souche C03P0 07", "value": "(S)"}, {"measurement": "CMI dans le milieu MH", "setting": "[2]; [3]", "value": 4, "unit": "mg/L"}]}
